Measured values taken from patent US20250346613A1, “BORIC ACID PROTEASOME INHIBITOR AND USE THEREOF” (ARTIVILA BIOPHARMA, priority 2022, published 2025).

Legend:
Assay type in all cases: cell-based
MM.1S cell strain = assay: Inhibitory activity of cell strain (CellTiter-Glo); details: Homo sapiens, MM1.S, 72 h incubation
Description: The cells used in this experiment were MM.1S cell strain and the detection reagent was CellTiter-Glo (Promega). […] The experimental process was described below. MM.1S cells in the logarithmic growth phase and in a good status were digested into individual cells by trypsin, centrifuged to remove the supernatant, and counted. Cells were diluted and 100 μL of cell suspension per well was added to a 96-well enzyme-coated plate at 1×10^5 cells per well. The wells containing only RPMI1640 complete medium were set as blank control. The 96-well plate was transferred to a 37° C. incubator containing 5% CO2 for 24 h of incubation.
The compound was accurately weighed and dissolved in DMSO to a concentration of 10^−2 M. 10 μL of compound was pipetted to 190 μL of DMSO to given a 5×10^−4 M compound. 6 μL of the compound (5×10^−5 M) was pipetted to a new 96-well microplate containing 194 μL of RPMI1640 complete medium and diluted in a 3-fold gradient dilution. 50 μL of the diluted compound was transferred to the 96-well microplate containing the cells such that the final compound concentrations were 5×10^−7 M, 1.67×10^−7 M, 5.55×10^−8 M, 1.85×10^−8 M, 6.17×10^−9 M, 2.06×10^−9 M, 6.86×10^−10 M, 2.29×10^−10 M, and 0 M. For the 0 M, no compound was added, and the same concentration of DMSO was added. The marketed drug bortezomib was used as a positive control. The 96-well microplate added with compounds was placed in the 37° C. incubator for 72 h of incubation.
At the predetermined detection time, the 96-well microplate to be detected was placed at room temperature, added with 40 μL of detection reagent (CellTiter-Glo) per well, and covered with a dark lid or piece of aluminium foil. The contents were mixed on an orbit oscillator for 10 min for complete cell lysis, with a vibration speed of 150 rpm. Luminescence values were detected on a multifunctional microplate reader (BioTek Synergy H1 Hybrid Multi-Mode Reade).
The data were exported and the percentage inhibition was calculated according to the following formula: Inhibition rate=(maximum signal value-compound signal value)/(maximum signal value−blank signal value)×100%, • wherein maximum signal was obtained from alone DMSO-treated cells, and blank signal was obtained from wells containing only culture medium.

[1] = target: T1, β5i subunit of the 20S proteasome (Homo sapiens, UniProt P20618+P28062); assay: Proteasome inhibitory activity, β5i subunit (Raji cells treated with compound, lysed, Ac-ANW-AMC substrate); details: proteasome from Raji cells incubated with compound 4 h
T1 construct: The proteasome tested in the present disclosure was derived from Raji cells; endogenous in cells; host or cells: Raji cells
Source text: (§1) In the present disclosure, the fluorescent peptide substrate Ac-Ala-Asn-Trp-AMC (abbreviated as Ac-ANW-AMC) and the […] kit containing a fluorescent peptide substrate Suc-Leu-Leu-Val-Tyr-AMC (abbreviated as Suc-LLVY-AMC) (Promega, Item No. G8660) were used to detect the activities of the β5i subunit and β5c subunit of the 20S proteasome, respectively.
(§2) The proteasome tested in the present disclosure was derived from Raji cells, the fluorescent substrate Ac-ANW-AMC was purchased from Roche company, and other reagents were purchased from Sigma company. The experimental system was divided into two parts of cell lysis system and enzyme reaction system. […] The starting concentration of the compound (inhibitor) was 1 μM. It was diluted in a 3-fold serial dilution to a total of 8 concentrations, that is, the administration concentration can be 1 μM, 0.333 μM, 0.111 μM . . . , respectively, and the specific experimental process was described below.
(§3) Raji cells (1×10^6 cells) cryopreserved in liquid nitrogen were thawed rapidly in a water bath at 37° C. The cell pellet was transferred to a 15 mL centrifuge tube, added with 9 mL of fresh medium (Gibco RPMI1640 added with 10% fetal bovine serum and 1% double antibiotics), centrifuged at 120 g for 5 min, inoculated to 25 mL cell culture flasks, and passaged once every 2-3 days.
(§4) The compound was weighed and dissolved in DMSO to a concentration of 10 mM. The compound was then sequentially diluted to concentrations of 200 μM, 66.67 μM, 22.22 μM, 7.41 μM, 2.47 μM, 0.82 μM, 0.27 μM, and 0.091 μM with fresh medium. Raji cells in a good growth status were inoculated into a 48-well cell culture plate at 7×10^5 cells/mL.
(§5) Raji cells in a good growth status were taken and counted. They were then inoculated to a 48-well cell culture plate at 7×10^5 cells/mL. Each 5 μL of the various concentrations of diluted compounds above were taken and added to the culture plate inoculated with cells, and the lowest concentration of compound was 0 μM. The drug bortezomib (Velcade) and ONX-0914 were used as the positive control compounds. All cells were incubated at 37° C. for 4 h.
(§6) The compound-treated cells were sequentially transferred into 1.5 mL centrifuge tubes, centrifuged at 10000 rpm for 2 min, and the supernatants were removed. The cell pellet was resuspended in 1 mL of PBS, centrifuged at 10000 rpm for 2 min, and the supernatant was removed. Cells were resuspended by adding 100 μL of cell lysate (50 mM Tris of pH 7.5, 150 mM NaCl, 5 mM MgCl2, 5 mM ATP, 1 mM DTT, 0.01% NP-40, 1 mM Digitonin, and Cocktail), placed in an ice bath for 30 min, and centrifuged at 13000 rpm for 10 min.
(§7) 2 mg of fluorescent peptide substrate AC-ANW-AMC was dissolved in 424.7 μL of DMSO to obtain an 8 mM stock solution, and stored at −20° C. The stock solution was diluted 100-fold to a final concentration of […] for use in the reaction system. The fluorescent peptide substrate Suc-LLVY-AMC was prepared according to the instructions of the Promega kit.
(§8) Each 20 μL of the prepared proteasome solution above was added to a 96-well white luciferase microplate and added with 25 μL of AC-ANW-AM substrate buffer solution (50 mM Tris of pH 7.5, 150 mM NaCl, 5 mM MgCl2, 5 mM ATP, 80 uM Ac-ANW-AMC and 1 mM DTT) and 25 μL of Suc-LLVY-AMC substrate buffer solution for 10 min of reaction at 37° C. in the dark. Fluorescence values were read at 345 nm/445 nm by using a fluorence microplate reader.
(§9) The data were exported and the inhibition rate in percentage was calculated according to the following formula: Inhibition rate=(maximum signal value-compound signal value)/(maximum signal value−blank signal value)×100%.
(§10) Where the maximum signal was obtained from cell lysates treated with DMSO only, and the blank signal was obtained from wells containing only lysates.

[2] = target: T2, β5c subunit of the 20S proteasome (Homo sapiens, UniProt P20618+P28074); assay: Proteasome inhibitory activity, β5c subunit (Raji cells treated with compound, lysed, Suc-LLVY-AMC substrate); details: proteasome from Raji cells incubated with compound 4 h
T2 construct: The proteasome tested in the present disclosure was derived from Raji cells; endogenous in cells; host or cells: Raji cells
Source text: as §1, §2, §3, §4, §5, §6, §7, §8, §9, §10

Row | Structure (SMILES) | IC50 (MM.1S cell strain) | IC50 [1] | IC50 [2]
1 | COc1cccc(CNC(=O)CC(=O)N[C@@H](Cc2coc3ccccc23)B(O)O)c1 [Example 46, (R)-(2-(benzofuran-3-yl)-1-(3-((3-methoxybenzyl)amino)-3-oxopropionamido)ethyl)boric acid] | ≤ 50 nM | ≤ 50 nM | ≤ 50 nM
2 | CC(C(=O)Nc1ccccc1)C(=O)N[C@@H](Cc1ccccc1)B(O)O (stereo partly drawn) [Example 47, ((1R)-1-(2-methyl-3-oxo-3-(phenylamino)propionylamino)-2-phenylethyl)boronic acid] | 200 to 500 nM | ≤ 50 nM | 50 to 200 nM
3 | COc1cccc(CNC(=O)CC(=O)N[C@@H](CC(C)C)B(O)O)c1 [Example 48, (R)-(1-(3-((3-methoxybenzyl)amino)-3-oxopropionamido)-3-methylbutyl)boric acid] | ≤ 50 nM | ≤ 50 nM | ≤ 50 nM
4 | COc1cccc(CNC(=O)CC(=O)N[C@@H](Cc2ccccc2)B(O)O)c1 [Example 49, (R)-(1-(3-((3-methoxybenzyl)amino)-3-oxopropionylamino)-2-phenylethyl)boric acid] | ≤ 50 nM | ≤ 50 nM | ≤ 50 nM
5 | COc1cccc(CNC(=O)CC(=O)N[C@@H](Cc2ccc(C)cc2)B(O)O)c1 [Example 50, (R)-(1-(3-((3-methoxybenzyl)amino)-3-oxopropionylamino)-2-(p-tolyl)ethyl)boric acid] | ≤ 50 nM | ≤ 50 nM | ≤ 50 nM
6 | Cc1ccc(C[C@H](NC(=O)C(C)(F)C(=O)NCc2cccc(-c3ccccc3)n2)B(O)O)cc1 (stereo partly drawn) [Example 56, ((1R)-1-(2-fluoro-2-methyl-3-oxo-3-(((6-phenylpyridin-2-yl)methyl)amino)propionylamino)-2-(p-tolyl)ethyl)boric acid] | 50 to 200 nM | ≤ 50 nM | ≤ 50 nM
7 | CC(C(=O)NCc1cccc(-c2ccccc2)n1)C(=O)N[C@@H](Cc1coc2ccccc12)B(O)O (stereo partly drawn) [Example 57, ((1R)-2-(benzofuran-3-yl)-1-(2-methyl-3-oxo-3-(((6-phenylpyridin-2-yl)methyl)amino)propionamido)ethyl)boric acid] | ≤ 50 nM | ≤ 50 nM | ≤ 50 nM
8 | CC(C(=O)NCc1cccc(-c2ccccc2)n1)C(=O)N[C@@H](Cc1ccc(-c2ccccc2)cc1)B(O)O (stereo partly drawn) [Example 58] | 50 to 200 nM | ≤ 50 nM | ≤ 50 nM
9 | CC(C(=O)NCc1ccc(Cl)cc1Cl)C(=O)N[C@@H](Cc1coc2ccccc12)B(O)O (stereo partly drawn) [Example 60, ((1R)-2-(benzofuran-3-yl)-1-(3-((2,4-dichlorobenzyl)amino)-2-methyl-3-oxopropionamido)ethyl) boric acid] | ≤ 50 nM | ≤ 50 nM | ≤ 50 nM
10 | COc1cccc(CCNC(=O)C(C)C(=O)N[C@@H](Cc2ccc(C)cc2)B(O)O)c1 (stereo partly drawn) [Example 62, ((1R)-1-(3-((3-methoxyphenylethyl)amino)-2-methyl-3-oxopropionamido)-2-(p-tolyl)ethyl)boric acid] | ≤ 50 nM | ≤ 50 nM | ≤ 50 nM

Now from value to compound:

Row | IC50 (MM.1S cell strain) | IC50 [1] | IC50 [2] | Structure (SMILES)
11 | ≤ 50 nM | ≤ 50 nM | ≤ 50 nM | COc1cccc(CCNC(=O)C(C)C(=O)N[C@@H](Cc2ccc(-c3ccccc3)cc2)B(O)O)c1 (stereo partly drawn) [Example 64, ((1R)-2-([1,1′-biphenyl]-4-yl)-1-(3-((3-methoxyphenylethyl)amino)-2-methyl-3-oxopropionamido)ethyl)boric acid]
12 | ≤ 50 nM | ≤ 50 nM | ≤ 50 nM | COc1cccc(CNC(=O)C(Cc2ccccc2)C(=O)N[C@@H](Cc2ccc(C)cc2)B(O)O)c1 (stereo partly drawn) [Example 65, ((1R)-1-(2-benzyl-3-((3-methoxybenzyl)amino)-3-oxopropionamido)-2-(p-tolyl)ethyl)boric acid]
13 | ≤ 50 nM | ≤ 50 nM | ≤ 50 nM | COc1cccc(CNC(=O)C(Cc2ccccc2)C(=O)N[C@@H](CC(C)C)B(O)O)c1 (stereo partly drawn) [Example 66, ((1R)-1-(2-benzyl-3-((3-methoxybenzyl)amino)-3-oxopropionamido)-3-methylbutyl)boronic acid]
14 | ≤ 50 nM | ≤ 50 nM | ≤ 50 nM | CC(C(=O)NCc1cccc(OC(F)(F)F)c1)C(=O)N[C@@H](Cc1coc2ccccc12)B(O)O (stereo partly drawn) [Example 73, ((1R)-2-(benzofuran-3-yl)-1-(2-methyl-3-oxo-3-((3-(trifluoromethoxy)benzyl)amino)propionamido)ethyl)boric acid]
15 | ≤ 50 nM | ≤ 50 nM | ≤ 50 nM | COc1cccc(CNC(=O)C(C(=O)N[C@@H](Cc2coc3ccccc23)B(O)O)C(C)C)c1 (stereo partly drawn) [Example 75, ((1R)-2-(benzofuran-3-yl)-1-(2-((3-methoxybenzyl)carbamoyl)-3-methylbutanamido)ethyl)boric acid]
16 | ≤ 50 nM | ≤ 50 nM | ≤ 50 nM | CC(C(=O)NCc1cccc(C(F)(F)F)c1)C(=O)N[C@@H](Cc1coc2ccccc12)B(O)O (stereo partly drawn) [Example 77, ((1R)-2-(benzofuran-3-yl)-1-(2-methyl-3-oxo-3-((3-(trifluoromethyl)benzyl)amino)propionamido)ethyl)boric acid]
17 | ≤ 50 nM | ≤ 50 nM | ≤ 50 nM | COc1cccc(CNC(=O)C(CC2CC2)C(=O)N[C@@H](Cc2ccc(C)cc2)B(O)O)c1 (stereo partly drawn) [Example 80, ((1R)-1-(2-(cyclopropylmethyl)-3-((3-methoxybenzyl)amino)-3-oxopropionamido)-2-(p-tolyl)ethyl)boric acid]
18 | ≤ 50 nM | ≤ 50 nM | ≤ 50 nM | COc1cccc(CNC(=O)C(CC2CC2)C(=O)N[C@@H](Cc2coc3ccccc23)B(O)O)c1 (stereo partly drawn) [Example 81, ((1R)-2-(benzofuran-3-yl)-1-(2-(cyclopropylmethyl)-3-((3-methoxybenzyl)amino)-3-oxopropionamido)ethyl)boric acid]
